# Results taken from patent publication US6242468A, “Carbamate and urea compositions and neurotrophic uses” (priority 1998, dated 2001).
# Test system: TH-positive dopaminergic neurons in the striatum
# Experiment: MPTP Model of Parkinson's Disease; recovery of TH-positive dopaminergic neurons in the striatum
# Type: in vivo, male CD1 white mice
# Conditions: 4 mg/kg s.c.; MPTP 30 mg/kg i.p. for 5 days; compound along with MPTP and 5 further days; 18 days following MPTP
# Procedure: MPTP lesioning of dopaminergic neurons in mice was used as an animal model of Parkinson's Disease. Four week old male CD1 white mice were dosed i.p. with 30 mg/kg of MPTP for 5 days. Test compounds (4 mg/kg), or vehicle, were administered s.c. along with the MPTP for 5 days, as well as for an additional 5 days following cessation of MPTP treatment. At 18 days following MPTP treatment, the animals were sacrificed and the striata were dissected and perfusion-fixed. Immunostaining was performed on saggital and coronal brain sections using anti-tyrosine hydroxylase […] to quantitate survival and recovery of dopaminergic neurons. In animals treated with MPTP and vehicle, a substantial loss of functional dopaminergic terminals was observed as compared to non-lesioned animals. […] Table III presents quantitation for the recovery of TH-positive dopaminergic neurons in the striatum of animals receiving compounds 1, 3, 4 and 5 in this model.
row,SMILES,% Recovery of TH Immunostaining
1,"CCC(C)CNC(=O)N1CCC[C@H]1C(=O)OCCCc1cccnc1 (stereo partly drawn) [Example 1, 3-(3-pyridyl)-1-propyl (2S)-1-[(2-methylbutyl)carbamoyl]pyrrolidine-2-carboxylate]",27.47%
2,"O=C(OCCCc1cccnc1)[C@@H]1CCCN1C(=S)NC1CCCCC1 [Example 3, 3-(3-pyridyl)-1-propyl (2S)-1-[(cyclohexyl)thiocarbamoyl]-pyrrolidine-2-carboxylate]",56.13%
3,"O=C(OCCCc1cccnc1)[C@@H]1CCCN1C(=O)NC1CCCCC1 [Example 4, 3-(3-pyridyl)-1-propyl (2S)-1-[(cyclohexyl)carbamoyl]-pyrrolidine-2-carboxylate]",59.79%
4,"O=C(OCCCc1cccnc1)[C@@H]1CCCN1C(=S)NC12CC3CC(CC(C3)C1)C2 [Example 5, 3-(3-pyridyl)-1-propyl (2S)-1-[(1-adamantyl)thiocarbamoyl]pyrrolidine-2-carboxylate]",52.32%
